Measured values: US8692001B2, “Sulfonamides for the modulation of PKM2” (Dynamix Pharmaceuticals Ltd., priority 2010, dated 2014)
Each block holds one molecule with its values, some of them ahead of it.

What was measured:
[1] = tested on: H1299 (Non small cell lung carcinoma cell line); assay: In vitro cell proliferation, Assay Protocol II (cell proliferation index, fluorescent membrane marker, flow cytometry); assay type: cell-based; conditions: Homo sapiens, NCI-H1299, as measured by Assay Protocol II
Description: In a second assay to determine the inhibition of cell proliferation by a compound of the invention, cell proliferation of the cell line of interest was measured by a cell proliferation index assay using Fluofarma® based technology. This assay is based on the dilution rate of a fluorescent membrane marker, which is a direct function of the number of cell divisions. Briefly, the assay is performed by loading the cells with a non-toxic fluorescent phospholipid analog before the seeding. […] Flow cytometry analysis of the fluorescent probe is performed after the loading of the cells both prior to, as well as after treatment with various concentrations of the test compound. The dilution rate of the fluorescent probe at the single cell level is directly correlated to the number of cell divisions.

[2] = molecular target: T1, PKM2, human recombinant (Homo sapiens, UniProt P14618); assay: PKM2 enzymatic activity assay (Kinase-Glo Plus luminescence); assay type: biochemical; conditions: PKM2 activation; 0.1 nM PKM2, 0.1 mM ADP, 0.5 mM PEP, room temperature, 1 hour
T1 construct: purchased BPS 50295
T1 sequence (P14618 whole entry): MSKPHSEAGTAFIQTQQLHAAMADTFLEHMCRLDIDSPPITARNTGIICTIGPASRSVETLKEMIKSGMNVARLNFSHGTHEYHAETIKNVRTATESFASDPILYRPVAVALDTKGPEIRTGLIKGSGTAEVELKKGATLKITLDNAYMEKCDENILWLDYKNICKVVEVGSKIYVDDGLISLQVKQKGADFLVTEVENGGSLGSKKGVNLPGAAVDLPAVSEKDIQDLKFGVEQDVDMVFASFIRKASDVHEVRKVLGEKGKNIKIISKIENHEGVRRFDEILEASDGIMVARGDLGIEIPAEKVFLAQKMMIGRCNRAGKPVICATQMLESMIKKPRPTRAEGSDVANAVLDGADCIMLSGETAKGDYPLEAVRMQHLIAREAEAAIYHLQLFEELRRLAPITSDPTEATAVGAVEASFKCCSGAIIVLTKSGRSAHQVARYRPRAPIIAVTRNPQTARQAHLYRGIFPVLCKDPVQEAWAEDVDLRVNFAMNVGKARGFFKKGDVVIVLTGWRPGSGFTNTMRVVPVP
Description: PKM2 performs the following enzymatic reaction, where the PKM2 substrates, PEP (phosphoenolpyruvate) and ADP, are converted to pyruvate and ATP as follows: PEP+ADP→Pyruvate+ATP. All of the enzymatic reactions were conducted in duplicates at room temperature for 1 hour in a 50 μL mixture containing:
PKM2 assay buffer (50 mM Immidazole, pH 7.2; 7 mM MgCl2; 50 mM KCl; 0.01% Tween; and 0.05% BSA), 0.1 mM ADP, 0.5 mM PEP, 0.1 nM PKM2 enzyme (PKM2, human recombinant (BPS catalog number 50295)) and the indicated test compound.
Fructose 1,6 biphosphate, (FBP (Sigma)) was used as a positive control for activation at concentration of 0.5 mM. After enzymatic reactions, 50 μL of Kinase-Glo® Plus reagent (Promega kit) was added to each well and luminescence was measured using a BioTek Synergy™ 2 microplate reader.
PKM2 activity assays were performed in duplicates at each concentration. The luminescence data were analyzed using the computer software, GraphPad PRISM®. In the absence of the compound, the luminescence was defined as 0% activity. The percent activity in the presence of each compound was calculated according to the following equation: % Activity=[(L−Lb)/(Lt−Lb)−1]×100% where L=the luminescence in the presence of the test compound, Lb=the luminescence in the absence of PKM2, and Lt=the luminescence intensity in the absence of the test compound. The % activity values versus a series of compound concentrations were plotted using non-linear regression analysis of Sigmoidal dose-response curve generated with the equation Y=B+(T−B)/1+10^((LogEC50−X)×Hill Slope), where Y=percent activity, B=minimum percent activity, T=maximum percent activity, X=logarithm of compound and Hill Slope=slope factor or Hill coefficient. The EC50 value was determined for the indicated compounds as the concentration causing a half-maximal percent activity.

[3] = Cell proliferation and apoptosis over time (cell counts, caspase 3/7 assay), FIG. 3; assay type: cell-based
Description: Additionally, the effect of 5-((2,3-dihydrobenzo[b][1,4]dioxin-6-yl)sulfonyl)-2-methyl-1-(methylsulfonyl)indoline on cell proliferation and apoptosis was measured and the results are shown in FIG. 3.

[4] = tested on: HepG2 cancer cells (hepatocellular carcinoma cells); assay: Bioenergetic study, XF24 analyzer (OCR and ECAR); assay type: cell-based; conditions: HepG2 cells treated at 100 μM, recorded over an 8 hour period; FIG. 2
Description: Bioenergetic studies were performed using XF24 analyzer (Seahorse Bioscience). Oxygen Consumption Rate (OCR), a measure of mitochondrial oxydative phosphorylation, and Extra-Cellular Acidification Rate (ECAR), which represents glycolysis, were recorded over an 8 hour period for cells treated with various test compounds at 100 μM.

[5] = tested on: H1299 (Non small cell lung carcinoma cell line); assay: In vitro cell proliferation, Assay Protocol I (CellTiterGlo); assay type: cell-based; conditions: Homo sapiens, NCI-H1299, 96 total hours of culture
Description: (§1) Growth inhibitory activity against the human tumor cell lines of compounds of the invention was determined using Promega's CellTiterGlo® assay. The cell lines of interest were placed in a 96-well microculture plate (Costar® white, flat bottom #3917) in a total volume of 90 μL/well. After 24 hours of incubation in a humidified incubator at 37° C. with 5% CO2 and 95% air, 10 μL of serially diluted test compounds in growth medium were added to each well. After 96 total hours of culture in a CO2 incubator, the plated cells and CellTiter-Glo® (Promega # G7571) reagents were brought to room temperature to equilibrate for 30 minutes. 100 μL of CellTiter-Glo® reagent was added to each well. The plate was shaken for 2 minutes and then left to equilibrate for 10 minutes before reading luminescence on the Tecan GENios microplate reader.
(§2) Percent inhibition of cell growth was calculated relative to untreated control wells. All tests were performed in triplicate for each concentration level. The IC50 value for the test compounds was estimated using Prism 3.03 by curve-fitting the data.

[6] = tested on: Colo-205 (Colorectal cancer cell line); assay: as above; assay type: cell-based; conditions: Homo sapiens
Description: as §1, §2

[7] = tested on: 786-O (Renal cancer cell line); assay: as above; assay type: cell-based; conditions: Homo sapiens, 786-0
Description: as §1, §2

[8] = tested on: HeLa (Cervical cancer cell line); assay: as above; assay type: cell-based; conditions: Homo sapiens
Description: as §1, §2

[9] = tested on: A549 (Non-small cell lung carcinoma cell line); assay: as above; assay type: cell-based; conditions: Homo sapiens
Description: as §1, §2

[10] = tested on: HT-29 (Colorectal cancer cell line); assay: as above; assay type: cell-based; conditions: Homo sapiens
Description: as §1, §2

EC50 [2]: 1 to 10 µM | IC50 [5]: < 10 µM | IC50 [6]: < 30 µM | IC50 [7]: < 30 µM | IC50 [8]: < 60 µM | IC50 [9]: < 50 µM | IC50 [10]: > 100 µM | IC50 [1]: < 40 µM
Structure (SMILES): CC1Cc2cc(S(=O)(=O)c3ccc4c(c3)OCCO4)ccc2N1S(C)(=O)=O (stereo not drawn) [Compound 2A, 5-((2,3-dihydrobenzo[b][1,4]dioxin-6-yl)sulfonyl)-2-methyl-1-(methylsulfonyl)indoline]
Effect on cell proliferation (cell counts) ([3]; FIG. 3, as a function of time after treatment): induces a period of growth arrest | Cells that underwent apoptosis (caspase 3/7 assay) ([3]; by day 15, FIG. 3): up to 60% | Metabolic activity (OCR and ECAR) [4]: less metabolically active

EC50 [2]: 1 to 10 µM
Structure (SMILES): CC(=O)N1c2ccc(S(=O)(=O)c3ccc4c(c3)OCCO4)cc2CC1C (stereo not drawn) [Compound 4A]

EC50 [2]: 10 to 100 µM
Structure (SMILES): CC1Cc2cc(S(=O)(=O)Nc3ccc4c(c3)OCCO4)ccc2N1S(C)(=O)=O (stereo not drawn) [Compound 23A]

Second part, the molecule before the results:

Structure (SMILES): CS(=O)(=O)N1Cc2ccc(S(=O)(=O)c3ccc4c(c3)OCCO4)cc2C1 [Compound 6A, 5-((2,3-dihydrobenzo[b][1,4]dioxin-6-yl)sulfonyl)-2-(methylsulfonyl)isoindoline]
IC50 [1]: < 20 µM

Structure (SMILES): CCN(c1ccc(S(=O)(=O)c2ccc3c(c2)OCCO3)cc1)S(C)(=O)=O [Compound 24A]
EC50 [2]: 10 to 100 µM

Structure (SMILES): CCN(c1ccc(S(=O)(=O)c2ccc3c(c2)OCCO3)c(C)c1)S(C)(=O)=O [Compound 12A]
EC50 [2]: 1 to 10 µM

Structure (SMILES): Cc1cn(S(C)(=O)=O)c2ccc(S(=O)(=O)c3ccc4c(c3)OCCO4)cc12 [Compound 21A]
EC50 [2]: 1 to 10 µM

Structure (SMILES): C[C@H]1Cc2cc(S(=O)(=O)c3ccc4c(c3)OCCO4)ccc2N1S(=O)(=O)Cc1ccccc1 [Compound 13A]
EC50 [2]: 1 to 10 µM

Structure (SMILES): CC(C)N(c1ccc(S(=O)(=O)c2ccc3c(c2)OCCO3)cc1)S(C)(=O)=O [Compound 10A]
EC50 [2]: 1 to 10 µM

Structure (SMILES): CS(=O)(=O)N1CCc2cc(S(=O)(=O)c3ccc4c(c3)OCCO4)ccc21 [Compound 11A, 5-((2,3-dihydrobenzo[b][1,4]dioxin-6-yl)sulfonyl)-1-(methylsulfonyl)indoline]
IC50 [5]: < 20 µM

Structure (SMILES): CS(=O)(=O)N1CCCc2cc(S(=O)(=O)c3ccc4c(c3)OCCO4)ccc21 [Compound 7A]
EC50 [2]: 1 to 10 µM
